For experiment [1], the target named is T1, TcThiH (2-iminoacetate synthase ThiH) (Thermosinus carboxydivorans, UniProt A1HPQ5).
T1 construct: gene TcarDRAFT_1903; full length, N-terminal Strep-tag kept (MWSHPQFEKA-SGTFYDVIEDYRHFDF...YKDWQAL, 377 residues printed; printed DNA encodes a His6 tag instead); E. coli BL21(DE3) with isc operon and metK; [4Fe-4S] reconstituted; monomer
Briefly: X-ray crystal structure, […] Å. It is filed as binding. Particulars: with L-tyrosine, 5'-deoxyadenosine; bound to the [4Fe-4S] cluster; pH 6.5, anaerobic; SAM cleavage product mimic.

Experiment [2] deals with 2-iminoacetate synthase ThiH from Thermosinus carboxydivorans (Thermosinus carboxydivorans). Briefly: SEC; preparative gel filtration, HiLoad 16/600 S200 prep-grade column, buffer B (50 mM Tris pH 8, 100 mM NaCl), anaerobic. A general note: SEC sorts molecules by how far they enter the pores of the column.

T1 sequence (A1HPQ5 entry or part of it): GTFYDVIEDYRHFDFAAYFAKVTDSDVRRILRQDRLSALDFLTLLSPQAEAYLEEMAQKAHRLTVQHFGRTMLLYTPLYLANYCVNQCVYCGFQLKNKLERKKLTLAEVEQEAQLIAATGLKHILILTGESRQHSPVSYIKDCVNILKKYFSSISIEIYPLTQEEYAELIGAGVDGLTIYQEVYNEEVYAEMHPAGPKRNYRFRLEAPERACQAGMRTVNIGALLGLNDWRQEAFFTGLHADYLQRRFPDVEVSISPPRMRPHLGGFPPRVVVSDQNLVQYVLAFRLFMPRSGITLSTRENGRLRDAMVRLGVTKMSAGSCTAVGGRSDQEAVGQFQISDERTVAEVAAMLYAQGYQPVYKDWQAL

Turning to `CSCC[C@H](N)C(=O)O` [L-methionine], the “X-ray crystal structure, 1.27 Å” value in experiment [1] was “L-methionine bound to the radical SAM [Fe4S4]-cluster and L-tyrosine (Fig. 2b)”.

Consider “2-iminoacetate synthase ThiH from Thermosinus carboxydivorans (enzyme)”, for which the stoichiometry N (commonly a count of units in the complex or per binding partner) in experiment [2] was 2.

For the origin of these results see publication PMC9046217, “L-tyrosine-bound ThiH structure reveals C–C bond break differences within radical SAM aromatic amino acid lyases” (Nature Communications, 2022).
